The target of assay [1] is recombinant human α5β1 integrin (Homo sapiens, UniProt P05556+P08648). The experiment in a line: In vitro binding assay (a): inhibition of binding of α5β1 integrin to a fragment of human fibronectin (Fn9-10), Origen electrochemiluminescence. As to conditions: geometric mean of the measured IC50 values; n given below each value. The text has this:
The assay determined the ability of compounds to inhibit binding of α5β1 integrin to a cognate ligand, a fragment of human fibronectin. The assay used Origen technology (IGEN International) to measure the compound activity. Briefly, α5β1 integrin was coated onto epoxy-paramagnetic beads (Dynal Biotech UK, Bromborough, Wirral, CH62 3QL, UK, Catalogue No 140.11) and biotinylated-fibronectin ligand was coupled to strepatividin labeled Tag-NHS-Ester (BioVeris Corporation, Witney, Oxfordshire, OX28 4GE, UK, Catalogue No 110034). The ruthenium-labeled tag emits an electrochemiluminescence signal upon stimulation which is detected by the Origen reader. Thus, interaction of integrin and ligand causes association of bead and tag, and the resulting electrochemiluminescence signal reflects the level of integrin interaction with fibronectin.
20 μg of recombinant human α5β1 was coated onto 4×10(7) epoxy-paramagnetic beads according to manufacturers instructions at 4° C. for 24 hours. Integrin coating and corresponding activity was subsequently measured for each batch but typically, 25 ng of coated protein was used per assay well.
A DNA fragment encoding the domains 9-10 (amino-acids 1325-1509) of human fibronectin (Swiss-Prot Accession No. P02751) was isolated from cDNA libraries using standard molecular biology and PCR cloning techniques. The cDNA fragment was sub-cloned into a pT73.3 expression vector containing a GST-epitope tag (developed at AstraZeneca; Bagnall et al., Protein Expression and Purification, 2003, 27: 1-11). Following expression in E. coli, the expressed protein, termed Fn9-10, was purified using the GST-tag using standard purification techniques. The recombinant Fn9-10 was subsequently biotinylated using a EZ-link Sulfo-NHS-LC-Biotinylation kit (Perbio Science UK Ltd., Cramlington, Northumberland, NE231WA, UK, Catalogue No. 21335) and made to give a final concentration of approximately 1 mg/mil. Tag-NHS-Ester was labeled with streptavidin by incubation at room temperature following manufacturers instructions and buffer-exchanged into PBS to give a concentration of 0.5 mg/ml. Immediately prior to the assay, biotinylated-Fn9-10 and Streptavidin-labeled Tag were diluted in Assay Buffer to give a final concentrations of 0.6 ug/ml and 1.5 ug/ml respectively. The Fn9-10 and Tag solutions were then mixed together in equal volumes and incubated on ice for at least 30 minutes prior to the assay.
Test compounds were prepared as 10 mM stock solutions in DMSO (Sigma-Aldrich Company Ltd, Gillingham, Dorset SP8 4XT Catalogue No. 154938) and serially diluted with 4% DMSO to give a range of test concentrations at ×4 required final concentration. Aliquots (20 μl) of each compound dilution were placed into each well of a 384-well round bottomed polypropylene plate (Matrix Technologies, Wilmslow, Cheshire, SK9 3LP, Catalogue No. 4340 384). Each plate also contained control wells: maximum signal was created using wells containing 20 μl of 4% DMSO, and minimum signal corresponding to no binding was created using wells containing 20 μl of 80 mM EDTA (Sigma Catalogue No. E7889).
For the assay, 25 ng (20 ul) of a5b1-bead suspension and […] of the Fn9-10/Tag pre-incubated solution were added to each well containing 20 μl of compound or control solution. Assay plates were then incubated at room temperature for a minimum of 6 hours before being analysed on an Origen plate reader. […]

In assay [2] the test system is α5β1 integrin mediated adhesion of K562 cells. The experiment in a line: In vitro cell adhesion assay (b): inhibition of α5β1 integrin mediated adhesion of K562 cells to fibronectin fragment Fn9-10. The assay is classed as cell-based, human. The text has this: The assay determined the ability of compounds to inhibit the α5β1 integrin mediated adhesion of K562 cells to the ligand, a fragment of human fibronectin. The human K562 erythroleukaemia cell line (LGC Promochem, Teddington, Middlesex, UK, Catalogue No. CCL-243) was routinely maintained in RPMI 1640 medium (Sigma-Aldrich Company Ltd, Gillingham, Dorset SP8 4XT, Catalogue No. R0883) containing 10% heat-inactivated foetal calf serum (PAA lab GmbH, Pasching, Austria Catalogue No. PAA-A15-043) and 1% glutamax-1 (Invitrogen Ltd. Paisley, UK Catalogue No. 35050-038) at 37° C. with 5% CO2 at densities between 1×10^5 and 1×10^6 cells/ml.
A DNA fragment encoding the domains 9-10 (amino-acids 1325-1509) of human fibronectin (Swiss-Prot Accession No. P02751) was isolated from cDNA libraries using standard molecular biology and PCR cloning techniques. The cDNA fragment was sub-cloned into a pT7#3.3 expression vector containing a GST-epitope tag (developed at AstraZeneca; Bagnall et al., Protein Expression and Purification, 2003, 27: 1-11), and the fragment termed Fn9-10. Following expression in E. coli, the expressed protein was purified using the GST-tag using standard purification techniques.
For adhesion assay, a 96-well flat bottomed plate (Greiner Bio one ltd., Gloucester GL10 3SX Catalogue No. 655101) was coated overnight at 4° C. with 100 μl of 20 μg/ml Fn9-10 ligand in Dulbecco's PBS (Gibco#14190-94). The plate was then washed twice with 200 μl of PBS and blocked with 100 μl of 3% BSA (SigmaA7888) in PBS for 1 hour at 37° C. The plates were then washed again 3 times with 200 μl of PBS and left empty.
Test compounds were prepared as 10 mM stock solutions in DMSO (Sigma-Aldrich Company Ltd, Gillingham, Dorset SP8 4XT Catalogue No. 154938) and serially diluted with HBSS (Hanks Buffered Salt solution (Gibco Catalogue No. 14170-088)/2% DMSO to give a range of test concentrations at twice required final concentration. Aliquots (50 μl) of each compound dilution were placed into each well of the Fn9-10 coated plates. Each plate also contained control wells: maximum adhesion signal was created using wells containing 50 μl HBSS/2% DMSO, and minimum signal corresponding to no adhesion was created using wells containing 50 μl HBSS/2% DMSO/20 mM EDTA (Sigma Catalogue No. E7889).
The K562 cells were cultured to 1×10^6 cells/ml, and each culture suspension pooled. Cells were centrifuged at 1200 rpm for 2 mins, and the pellets washed with HBSS followed by HBSS/50 mM HEPES (Sigma Catalogue No. H0887). Cell pellets were pooled and re-suspended in HBSS/0.4 mM manganese chloride/50 mM HEPES (MnCl; Sigma Catalogue No. M1787) to give a final concentration of 4×10^6 cells/ml.
The assay was initiated by the addition of 50 μl of cell suspension into each coated well (200,000 cells/well), thus resulting in final desired compound concentration and a final MnCl concentration of 0.2 mM. The plates were incubated for 45 minutes at 37° C. 5% CO2. After this time, the solution was flicked off as waste, and the remaining cell layer carefully washed twice with 200 μl of PBS, and then fixed with 200 μl of 100% ethanol for 30 minutes.
After fixation, the ethanol was flicked off to waste and 100 μl of 0.1% Crystal violet stain was added to each well, and incubated at ambient temperature for 15 minutes. Excess stain was removed by rinsing 3 times under cold slow running water. The plates were blotted over tissue then solubilised by adding 50 μl of 1% Triton X100 (Sigma Catalogue No. T9284) and shaking at 500 rpm for 30 mins on plate shaker. Finally, 100 μl of deionised water was added to each well and the absorbance was determined at 590 nm on a spectrophotometer. The minimum value was subtracted from all values, and the absorbance signal was plotted against compound concentration to generate IC50 data.

The mark [3] stands for this setting: Homo sapiens, K562, geometric mean of the measured IC50 values, n given below each value, read-out: Adhesion Assay (b) IC50.

Molecules are shown by their SMILES. pIC50: −log10 of the molar value. Like-named read-outs stand apart in the source and are kept apart here. Where only a bound is given, the exact number is not on record here.

recombinant human α5β1 integrin, sequence (P08648 42-894 limits assumed): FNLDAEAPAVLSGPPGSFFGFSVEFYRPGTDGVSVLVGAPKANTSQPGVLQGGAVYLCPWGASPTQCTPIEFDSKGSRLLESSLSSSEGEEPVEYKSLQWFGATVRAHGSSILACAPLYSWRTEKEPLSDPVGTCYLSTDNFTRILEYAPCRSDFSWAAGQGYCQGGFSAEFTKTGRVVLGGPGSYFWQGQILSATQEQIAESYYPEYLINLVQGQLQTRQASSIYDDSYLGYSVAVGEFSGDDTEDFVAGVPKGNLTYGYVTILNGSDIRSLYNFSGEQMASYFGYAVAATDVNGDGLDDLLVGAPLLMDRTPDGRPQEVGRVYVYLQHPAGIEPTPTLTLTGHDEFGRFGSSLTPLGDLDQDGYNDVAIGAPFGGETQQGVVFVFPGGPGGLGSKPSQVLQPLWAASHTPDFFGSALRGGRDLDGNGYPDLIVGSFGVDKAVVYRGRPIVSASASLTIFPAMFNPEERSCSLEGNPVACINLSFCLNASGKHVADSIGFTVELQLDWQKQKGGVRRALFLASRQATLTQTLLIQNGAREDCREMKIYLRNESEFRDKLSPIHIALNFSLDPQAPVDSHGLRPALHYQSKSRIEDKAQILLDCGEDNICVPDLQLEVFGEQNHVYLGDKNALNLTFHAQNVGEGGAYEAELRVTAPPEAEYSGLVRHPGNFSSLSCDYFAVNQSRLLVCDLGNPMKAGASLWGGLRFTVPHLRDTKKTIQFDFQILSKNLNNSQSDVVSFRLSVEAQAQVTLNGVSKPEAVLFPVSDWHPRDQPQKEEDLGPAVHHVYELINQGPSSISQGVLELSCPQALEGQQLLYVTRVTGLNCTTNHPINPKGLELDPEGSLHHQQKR
recombinant human α5β1 integrin, sequence (P08648 895-1049 partner limits assumed): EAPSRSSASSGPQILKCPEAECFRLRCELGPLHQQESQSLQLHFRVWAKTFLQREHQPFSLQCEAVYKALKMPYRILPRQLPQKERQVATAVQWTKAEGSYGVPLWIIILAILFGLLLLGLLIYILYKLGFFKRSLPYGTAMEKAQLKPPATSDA
recombinant human α5β1 integrin, sequence (P05556 21-798): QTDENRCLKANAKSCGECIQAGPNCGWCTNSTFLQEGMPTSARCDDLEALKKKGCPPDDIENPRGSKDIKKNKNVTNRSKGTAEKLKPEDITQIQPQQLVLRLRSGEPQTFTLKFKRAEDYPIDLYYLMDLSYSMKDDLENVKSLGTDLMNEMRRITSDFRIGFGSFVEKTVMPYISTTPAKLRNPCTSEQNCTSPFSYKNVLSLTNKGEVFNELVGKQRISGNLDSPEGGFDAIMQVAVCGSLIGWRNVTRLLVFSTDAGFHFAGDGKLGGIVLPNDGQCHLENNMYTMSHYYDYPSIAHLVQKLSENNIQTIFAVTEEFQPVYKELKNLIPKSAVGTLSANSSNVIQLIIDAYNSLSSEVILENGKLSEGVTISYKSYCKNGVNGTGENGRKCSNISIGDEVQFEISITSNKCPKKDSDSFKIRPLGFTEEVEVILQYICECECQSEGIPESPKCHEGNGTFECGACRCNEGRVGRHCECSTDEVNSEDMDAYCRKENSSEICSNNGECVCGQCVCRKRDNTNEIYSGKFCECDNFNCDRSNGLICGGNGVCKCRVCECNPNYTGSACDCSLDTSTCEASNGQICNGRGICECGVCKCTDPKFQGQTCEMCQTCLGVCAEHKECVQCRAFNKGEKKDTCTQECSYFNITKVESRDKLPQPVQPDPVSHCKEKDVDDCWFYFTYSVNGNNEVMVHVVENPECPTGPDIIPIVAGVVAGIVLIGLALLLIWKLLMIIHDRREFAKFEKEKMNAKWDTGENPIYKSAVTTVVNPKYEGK

As a reminder, the pIC50 is the negative decadic logarithm of the IC50, by convention in mol/L. As to `CNc1cccc(CCCc2ccc(C[C@H](NC(=O)c3c(C)noc3C)C(=O)O)s2)n1` [Example 1.1, N-[(3,5-dimethylisoxazol-4-yl)carbonyl]-3-(5-{3-[6-(methylamino)pyridin-2-yl]propyl}thiophen-2-yl)-L-alanine], the pIC50 in assay [1] was 8.40; in assay [2] (setting [3]), 7.57.
Take `CNc1cccc(CCCc2ccc(C[C@H](NC(=O)c3c(Cl)cncc3Cl)C(=O)O)s2)n1` [Example 1.2, N-[(3,5-dichloropyridin-4-yl)carbonyl]-3-(5-{3-[6-(methylamino)pyridin-2-yl]propyl}thiophen-2-yl)-L-alanine]: the pIC50 in assay [1] was 9.00; in assay [2] (setting [3]), 8.10.
For `Cc1noc(C)c1C(=O)N[C@@H](Cc1ccc(CCCc2ccc3c(n2)NCCC3)s1)C(=O)O` [Example 2, N-[(3,5-dimethylisoxazol-4-yl)carbonyl]-3-{5-[3-(5,6,7,8-tetrahydro-1,8-naphthyridin-2-yl)propyl]thiophen-2-yl}-L-alanine], the pIC50 in assay [1] is over 9.00; in assay [2] (setting [3]) it was 7.92.
Consider `O=C(N[C@@H](Cc1ccc(CCCc2ccc3c(n2)NCCC3)s1)C(=O)O)c1c(Cl)cncc1Cl` [Example 3, N-(3,5-dichloroisonicotinoyl)-3-{5-[3-(5,6,7,8-tetrahydro-1,8-naphthyridin-2-yl)propyl]-thiophen-2-yl}-L-alanine], for which the pIC50 was 9.52 in assay [1]; over 8.40 in assay [2] (setting [3]); 8.30 in assay [2] (Homo sapiens, K562, single determinations listed in brackets under the geometric mean (n = 3), read-out: Adhesion Assay (b) IC50, individual measured values); over 8.52 in assay [2] (single determinations listed in brackets under the geometric mean (n = 3), read-out: Adhesion Assay (b) IC50, individual measured values).
Consider `O=C(N[C@@H](Cc1ccc(OCCc2ccc3c(n2)NCCC3)s1)C(=O)O)c1c(Cl)cncc1Cl` [Example 4, N-(3,5-dichloroisonicotinoyl)-3-{5-[2-(5,6,7,8-tetrahydro-1,8-naphthyridin-2-yl)ethoxy]-2-thienyl}-L-alanine], for which the values for the pIC50 in assay [1] and in assay [2] (setting [3]) were over 9.00 and over 8.52, respectively.

The values above are taken from patent US20080255183A1, “N-[HETEROARYLCARBONYL]-3-THIENYL-L-ALANINE DERIVATIVES AS a5beta1 ANTAGONISTS” (ASTRAZENECA AB, priority 2007, published 2008).
